According to patent US20030055084A1, “Pharmaceutical compounds and methods of use thereof” (Millennium Pharmaceutical, Inc., priority 2001, published 2003):
pIC50: −log10 of the molar value.

test system: Leukotriene B4 production in ionophore-stimulated human whole blood; assay: Inhibition of leukotriene B4 production in ionophore-stimulated human whole blood; assay type: cell-based; conditions: calcium ionophore stimulated, LTB4 by EIA, read-out: HWB IC50
Protocol: Inhibition of Leukotriene B4 Production in lonophore-Stimulated Human Whole Blood
Human blood was drawn into heparinized blood collection tubes, and aliquoted in 1 ml portions into 1.5 ml microfuge tubes. Test compound ([…]) of varying concentrations, dissolved in DMSO, was added to the blood sample and incubated for 15 minutes at 37° C. Calcium ionophore ([…]) in DMSO was added to a final concentration of […], and the samples were incubated for 30 minutes at 37° C. Samples are then centrifuged at 1100×g (2500 rpm, H1000B rotor, in a Sorvall centrifuge) for 10 minutes at 4° C. Supernatant ([…]) was transferred into 1 1.5 ml microfuge tube, […] of cold methanol added, and proteins precipitated on ice for 30 minutes. The samples were centrifuged at 110×g for 10 minutes at 4° C., and the supernatant assayed for LTB4 using a commercially available EIA kit (Cayman Chemical) according to manufacturer's specifications. The following IC50 results (nM) were obtained for the specified compounds having the structures as indicated for the corresponding compound number.

| SMILES | pIC50 |
| --- | --- |
| C[C@@H](C#C[C@@H]1CC[C@@H](c2cc3ccccc3s2)O1)N(O)C(N)=O [Compound 3] | 6.71 |
| NC(=O)N(O)CCC#C[C@@H]1CCC(c2cc3cc(F)ccc3o2)O1 (stereo partly drawn) [Compound 6A] | 7.00 |
| NC(=O)N(O)CCC#C[C@H]1CCC(c2cc3cc(F)ccc3o2)O1 (stereo partly drawn) [Compound 6B] | 6.41 |
| NC(=O)N(O)CCC#C[C@@H]1CC[C@H](c2cc3cc(C(F)(F)F)ccc3o2)O1 [Compound 4B] | 6.53 |
| NC(=O)N(O)CCC#C[C@@H]1CC[C@@H](c2cc3ccccc3s2)O1 [Compound 2A] | 6.95 |
| NC(=O)N(O)CCC#C[C@H]1CC[C@@H](c2cc3ccccc3s2)O1 [Compound 2B] | 6.06 |
